Measurements published in patent US6376427B1, “Herbicidal compositions” (Sumitomo Chemical Company, Limited, priority 1998, dated 2002).

Experiments:
giant foxtail [1] = assay: Test Example 2: post-emergence foliar spray, herbicidal activity; assay type: in vivo, giant foxtail (Setaria faberi); details: sprayed on 22-day plants, examined 5 days after application, index 0 to 10
Procedure: (§1) Plastic pots each having an area of 26.5×19 cm^2 and a depth of 7 cm were filled with upland soil, and then seeded with soybean, corn and giant foxtail. The corn was grown for 13 days, and the soybean and giant foxtail were grown for 22 days in a greenhouse. An emulsifiable concentrate compound A which had been obtained by well mixing 10 parts of compound A, 14 parts of polyoxyethylene styryl phenyl ether, 6 parts of calcium dodecylbenzenesulfonate, 35 parts of xylene, and 35 parts of cyclohexanone, an emulsifiable concentrate of flufenacet which had been obtained by well mixing 10 parts of flufenacet, 14 parts of polyoxyethylene styryl phenyl ether, 6 parts of calcium dodecylbenzenesulfonate, 35 parts of xylene, and 35 parts of cyclohexanone, and a mixture of the emulsifiable concentrate of compound A and the emulsifiable concentrate of flufenacet were independently diluted in their prescribed amounts with water. Each dilution was uniformly sprayed over the plants with a small sprayer. After the application, the plants were grown in the greenhouse for 5 days, and the herbicidal activity and safety to soybean and corn were then examined.

giant foxtail [2] = assay: Test Example 1: post-emergence foliar spray, herbicidal activity; assay type: in vivo, giant foxtail (Setaria faberi); details: sprayed on 23-day plants, examined 5 days after application, index 0 to 10
Procedure: (§2) Plastic pots each having an area of 26.5×19cm^2 and a depth of 10 cm were filled with upland soil, and then seeded with wheat and giant foxtail. The wheat was grown for 14 days and t he giant foxtail was grown for 23 days in a greenhouse. An emulsifiable concentrate compound A which had been obtained by well mixing 10 parts of compound A, 14 parts of polyoxyethylene styryl phenyl ether, 6 parts of calcium dodecylbenzenesulfonate, 35 parts of xylene, and 35 parts of cyclohexanone, an emulsifiable concentrate of flufenacet which had been obtained by well mixing 10 parts of flufenacet, 14 parts of polyoxyethylene styryl phenyl ether, 6 parts of calcium dodecylbenzenesulfonate, 35 parts of xylene, and 35 parts of cyclohexanone, and a mixture of the emulsifiable concentrate of compound A and the emulsifiable concentrate of flufenacet were independently diluted in their prescribed amounts with water. Each dilution was uniformly sprayed over the plants with a small sprayer. After the application, the plants were grown in the greenhouse for 5 days, and the herbicidal activity and safety to wheat were then examined.

corn = assay: Test Example 2: safety to corn (phytotoxicity); assay type: in vivo; details: dosage 40 g/ha; sprayed on 13-day corn; examined 5 days after application
Procedure: as §1

soybean = assay: Test Example 2: safety to soybean (phytotoxicity); assay type: in vivo; details: dosage 40 g/ha; sprayed on 22-day soybean; examined 5 days after application
Procedure: as §1

wheat = assay: Test Example 1: safety to wheat (phytotoxicity); assay type: in vivo, wheat (Triticum aestivum); details: dosage 10 g/ha; sprayed on 14-day wheat; examined 5 days after application
Procedure: as §2

Compound	Herbicidal activity Giant foxtail (giant foxtail [1]; dosage 400 g/ha)	Herbicidal activity Giant foxtail (giant foxtail [2]; dosage 240 g/ha)	Herbicidal activity Giant foxtail (giant foxtail [1]; dosage 40 g/ha)	Herbicidal activity Giant foxtail (giant foxtail [2]; dosage 10 g/ha)	Phytotoxicity Corn (corn)	Phytotoxicity Soybean (soybean)	Phytotoxicity Wheat (wheat)
CC(C)N(C(=O)COc1nnc(C(F)(F)F)s1)c1ccc(F)cc1 [Flufenacet, 4-fluoro-N-isopropyl-2-(5-trifluoromethyl-,1,3,4-thiadiazol-2-yloxy)acetanilide, reference compound]	2	2					
CCOC(=O)COc1cc(-n2ncc(C(F)(F)F)c(C)c2=O)c(F)cc1Cl [Compound A]			4	3	No harm	No harm	No harm
